Data as given in ChEMBL document CHEMBL3425496, “Exploring experimental and computational markers of cyclic peptides: Charting islands of permeability” (Eur J Med Chem, 2015).
Square brackets hold non-standard residues; d marks the D form. Peptide text beside a SMILES is read from it. NMeW = CN[C@@H](Cc1c[nH]c2ccccc12)C(=O)O; NMeY = CN[C@@H](Cc1ccc(O)cc1)C(=O)O; NMeT = CN[C@H](C(=O)O)[C@@H](C)O; NMeL = CN[C@@H](CC(C)C)C(=O)O; dNMeL = CN[C@H](CC(C)C)C(=O)O; Sar = CNCC(=O)O

Tests used:
[1] = Apparent permeability of the compound at 50 uM after 5 hrs by PAMPA method; type: physicochemical
[2] = Apparent permeability from apical to basolateral side in human Caco2 cells by LC-MS analysis; type: ADME, cell-based; conditions: Caco-2

Row | SMILES | Papp at 5 h, 50 µM [1] [nm/s] | Papp A→B [2] [nm/s]
1 | CC(C)C[C@@H]1NC(=O)[C@@H](CC(C)C)N(C)C(=O)[C@H](CC(C)C)NC(=O)[C@H](Cc2ccc(O)cc2)N(C)C(=O)[C@H]2CCCN2C(=O)[C@H](CC(C)C)NC1=O | 15.1 | 77.5
2 | CC(C)C[C@@H]1NC(=O)[C@H](Cc2ccccc2)NC(=O)[C@H]([C@@H](C)O)NC(=O)CNC(=O)[C@H](C)NC(=O)[C@H](Cc2ccc(O)cc2)NC1=O (cyclo(AGTFLY)) | 0.2 | 4.6
3 | C[C@@H](O)[C@@H]1NC(=O)[C@@H](CCCCN)NC(=O)[C@@H](Cc2c[nH]c3ccccc23)NC(=O)[C@H](Cc2ccccc2)NC(=O)[C@@H]2CCCN2C(=O)[C@@H](Cc2ccccc2)NC1=O | 0.9 | 2
4 | CC(C)C[C@@H]1NC(=O)[C@H](CC(C)C)N(C)C(=O)[C@H](Cc2ccc(O)cc2)NC(=O)[C@@H]2CCCN2C(=O)[C@H]2CCCN2C(=O)[C@@H](CC(C)C)NC1=O | 2.9 | 10.4
5 | C[C@@H](O)[C@@H]1NC(=O)[C@H](CCCCN)NC(=O)[C@@H](Cc2c[nH]c3ccccc23)NC(=O)[C@H](Cc2ccccc2)NC(=O)[C@@H]2CCCN2C(=O)[C@H](Cc2ccccc2)NC1=O | 0.8 | 9.3
6 | C=C[C@H]1C[N@@]2CC[C@H]1C[C@@H]2[C@@H](O)c1ccnc2ccc(OC)cc12 [QUINIDINE] | 32.8 | –
7 | CC(C)C[C@H]1C(=O)N2CCC[C@H]2C(=O)N[C@@H](Cc2ccc(O)cc2)C(=O)N(C)[C@H](C)C(=O)N(C)CC(=O)N[C@H](Cc2ccccc2)C(=O)N1C | 1.4 | < 1.4
8 | CC(C)C[C@@H]1NC(=O)[C@H](Cc2ccccc2)NC(=O)CNC(=O)[C@H](C)NC(=O)[C@H](Cc2ccc(O)cc2)NC(=O)[C@H]2CCCN2C1=O | 0.1 | 2.7
9 | CC(C)C[C@H]1NC(=O)[C@@H](Cc2ccccc2)NC(=O)CN(C)C(=O)[C@H](C)N(C)C(=O)[C@H](Cc2ccc(O)cc2)NC(=O)[C@@H]2CCCN2C1=O | 0.3 | < 1.4
10 | CC(C)C[C@@H]1NC(=O)[C@H](Cc2ccc(O)cc2)NC(=O)[C@H]2CCCN2C(=O)[C@H](CC(C)C)NC(=O)[C@H](CC(C)C)N(C)C(=O)[C@@H](CC(C)C)NC1=O (cyclo(L[dL][NMeL]L[dP]Y)) | 7.6 | 78.3
11 | CC(C)C[C@H]1NC(=O)[C@H](Cc2ccccc2)NC(=O)CNC(=O)[C@@H](C)NC(=O)[C@H](Cc2ccc(O)cc2)NC(=O)[C@@H]2CCCN2C1=O | 0.7 | 5.8
12 | CC(C)C[C@@H]1NC(=O)[C@@H](CC(C)C)N(C)C(=O)[C@@H](CC(C)C)N(C)C(=O)[C@H](Cc2ccc(O)cc2)NC(=O)[C@@H]2CCCN2C(=O)[C@@H](CC(C)C)N(C)C1=O | 1 | 146
13 | CC(C)C[C@@H]1NC(=O)[C@H](Cc2ccc(O)cc2)N(C)C(=O)[C@H]2CCCN2C(=O)[C@H](CC(C)C)NC(=O)[C@H](CC(C)C)N(C)C(=O)[C@@H](CC(C)C)NC1=O | 13.1 | 113
14 | CC(C)C[C@@H]1NC(=O)[C@H](Cc2ccccc2)NC(=O)CNC(=O)[C@@H](C)NC(=O)[C@H](Cc2ccc(O)cc2)NC(=O)[C@@H]2CCCN2C1=O | 0.3 | < 1.4
15 | C[C@@H]1NC(=O)[C@H](C)N(C)C(=O)[C@H](C)NC(=O)[C@H](C)N(C)C(=O)[C@H](C)NC(=O)[C@@H](C)NC1=O | < 0.1 | < 1.4
16 | CC(C)C[C@@H]1NC(=O)[C@@H](CC(C)C)NC(=O)[C@@H](CC(C)C)NC(=O)[C@@H](CC(C)C)NC(=O)[C@H](Cc2c[nH]c3ccccc23)NC(=O)[C@@H]2CCCN2C1=O | 2.8 | 3.6
17 | CC(C)C[C@@H]1NC(=O)[C@H](Cc2ccccc2)NC(=O)[C@H]([C@@H](C)O)NC(=O)CN(C)C(=O)[C@H]([C@@H](C)O)NC(=O)[C@H](Cc2ccc(O)cc2)NC1=O (cyclo(FLYT[Sar]T)) | 0.2 | 1.7
18 | CC(C)C[C@@H]1NC(=O)[C@H](Cc2ccccc2)NC(=O)[C@H]([C@@H](C)O)NC(=O)CNC(=O)[C@H]([C@@H](C)O)NC(=O)[C@H](Cc2ccc(O)cc2)NC1=O (cyclo(FLYTGT)) | 0.2 | 0.4
19 | CC(C)C[C@H]1NC(=O)[C@H](Cc2ccccc2)NC(=O)CN(C)C(=O)[C@@H](C)N(C)C(=O)[C@H](Cc2ccc(O)cc2)NC(=O)[C@@H]2CCCN2C1=O | 0.7 | 6.3
20 | CC(C)C[C@@H]1NC(=O)[C@@H](CC(C)C)NC(=O)[C@H](CC(C)C)NC(=O)[C@H](Cc2ccc(O)cc2)N(C)C(=O)[C@H]2CCCN2C(=O)[C@H](CC(C)C)NC1=O (cyclo(LL[dP][NMeY]L[dL])) | 12.9 | 91.3
21 | CC(C)C[C@@H]1NC(=O)[C@H](Cc2ccccc2)NC(=O)[C@H]([C@@H](C)O)NC(=O)CNC(=O)[C@H](C(C)C)NC(=O)[C@H](Cc2ccc(O)cc2)NC1=O (cyclo(FLYVGT)) | 0.4 | 1.1

Row | SMILES | Papp at 5 h, 50 µM [1] [nm/s] | Papp A→B [2] [nm/s]
22 | CC(C)C[C@@H]1NC(=O)[C@H](Cc2ccccc2)N(C)C(=O)CN(C)C(=O)[C@H](C)NC(=O)[C@H](Cc2ccc(O)cc2)N(C)C(=O)[C@H]2CCCN2C1=O | 3.5 | 10.8
23 | CC[C@H](C)[C@@H]1NC(=O)[C@H](Cc2ccc(O)cc2)NC(=O)[C@H](Cc2ccccc2)NC(=O)CNC(=O)[C@H](C(C)C)NC(=O)CNC1=O (cyclo(FYIGVG)) | 0.1 | 0.6
24 | CC(C)C[C@@H]1NC(=O)[C@@H](CC(C)C)NC(=O)[C@@H](CC(C)C)NC(=O)[C@H](Cc2c[nH]c3ccccc23)NC(=O)[C@@H]2CCCN2C(=O)[C@@H](CC(C)C)NC1=O | 25.3 | 175
25 | CC(C)C[C@@H]1NC(=O)CNC(=O)[C@@H]2CCCN2C(=O)[C@H](Cc2ccc(O)cc2)NC(=O)[C@H](Cc2ccccc2)NC(=O)[C@@H]2CCCN2C1=O (cyclo(FYPGLP)) | 0.1 | 1.1
26 | CC(C)C[C@@H]1NC(=O)[C@@H](CC(C)C)N(C)C(=O)[C@@H](CC(C)C)N(C)C(=O)[C@H](Cc2ccc(O)cc2)NC(=O)[C@@H]2CCCN2C(=O)[C@@H](CC(C)C)NC1=O | 6.7 | 119
27 | CN1C(=O)[C@H]2CCCN2C(=O)[C@H](CCCCN)NC(=O)[C@H](CCCNC(=N)N)NC(=O)[C@@H](CCCNC(=N)N)NC(=O)[C@H](CCCNC(=N)N)NC(=O)[C@@H]1Cc1c[nH]c2ccccc12 | – | < 1.4
28 | CC(C)C[C@@H]1NC(=O)[C@H](Cc2c[nH]c3ccccc23)NC(=O)[C@@H]2CCCN2C(=O)[C@H]2CCCN2C(=O)[C@@H](CC(C)C)NC(=O)[C@H](CC(C)C)NC1=O | 1.9 | 2.1
29 | CC(C)C[C@@H]1NC(=O)[C@H](C(C)C)NC(=O)[C@H](Cc2c[nH]c3ccccc23)NC(=O)[C@H](Cc2ccccc2)NC(=O)[C@H](Cc2ccccc2)NC(=O)[C@@H]2CCCN2C1=O (cyclo(FFWVLP)) | 3.7 | 2.4
30 | CC(C)C[C@@H]1NC(=O)[C@H](Cc2ccccc2)NC(=O)CN(C)C(=O)[C@H](CC(C)C)N(C)C(=O)[C@H](Cc2ccc(O)cc2)NC(=O)[C@@H]2CCCN2C1=O (cyclo(FLPY[NMeL][Sar])) | 1 | 1
31 | CC(C)C[C@@H]1NC(=O)[C@H](Cc2ccc(O)cc2)NC(=O)[C@@H]2CCCN2C(=O)[C@@H](CC(C)C)NC(=O)[C@@H](CC(C)C)N(C)C(=O)[C@@H](CC(C)C)N(C)C1=O | 38.3 | 218
32 | CC(C)C[C@@H]1NC(=O)CNC(=O)[C@H](Cc2ccccc2)NC(=O)[C@H](CC(N)=O)NC(=O)[C@H](Cc2ccc(O)cc2)NC(=O)[C@H](C)NC1=O (cyclo(AYNFGL)) | 0.1 | 0.2
33 | CC(C)C[C@H]1C(=O)N2CCC[C@H]2C(=O)N[C@@H](Cc2ccccc2)C(=O)N[C@@H](Cc2ccccc2)C(=O)N[C@@H](Cc2c[nH]c3ccccc23)C(=O)N[C@@H](C(C)C)C(=O)N1C (cyclo(FFWV[NMeL]P)) | – | 68.2
34 | CC(C)C[C@H]1C(=O)N2CCC[C@@H]2C(=O)N(C)[C@@H](Cc2ccc(O)cc2)C(=O)N[C@@H](C)C(=O)NCC(=O)N(C)[C@@H](Cc2ccccc2)C(=O)N1C | 1.6 | 1
35 | CC(C)C[C@@H]1C(=O)N(C)[C@@H](CC(C)C)C(=O)N[C@@H](Cc2ccc(O)cc2)C(=O)N(C)[C@H](C)C(=O)N(C)CC(=O)N[C@@H](Cc2ccccc2)C(=O)N1C | 9.3 | 47.7
36 | CC(C)C[C@@H]1NC(=O)[C@H](CC(C)C)N(C)C(=O)[C@@H](CC(C)C)N(C)C(=O)[C@H](Cc2ccc(O)cc2)NC(=O)[C@@H]2CCCN2C(=O)[C@H](CC(C)C)N(C)C1=O | 23 | 139
37 | CC(C)C[C@H]1C(=O)N2CCC[C@H]2C(=O)N[C@@H](Cc2ccc(O)cc2)C(=O)N(C)[C@H](C)C(=O)N(C)CC(=O)N[C@@H](Cc2ccccc2)C(=O)N1C | – | < 1.4
38 | CC(C)C[C@@H]1NC(=O)[C@H](Cc2ccccc2)NC(=O)[C@H]([C@@H](C)O)N(C)C(=O)CN(C)C(=O)[C@H]([C@@H](C)O)NC(=O)[C@H](Cc2ccc(O)cc2)NC1=O (cyclo(FLYT[Sar][NMeT])) | 0.1 | 1
39 | CC(C)C[C@@H]1NC(=O)[C@H](Cc2ccc(O)cc2)NC(=O)[C@@H]2CCCN2C(=O)[C@H]2CCCN2C(=O)[C@@H](CC(C)C)NC(=O)[C@H](CC(C)C)NC1=O | 0.9 | 1
40 | CC(C)C[C@@H]1NC(=O)[C@@H](CC(C)C)N(C)C(=O)[C@H](CC(C)C)NC(=O)[C@H](Cc2ccc(O)cc2)NC(=O)[C@H]2CCCN2C(=O)[C@H](CC(C)C)NC1=O (cyclo(LL[dP]YL[dNMeL])) | 7.7 | –
41 | CC(C)C[C@@H]1NC(=O)[C@H](C(C)C)NC(=O)[C@H](Cc2c[nH]c3ccccc23)N(C)C(=O)[C@H](Cc2ccccc2)NC(=O)[C@H](Cc2ccccc2)NC(=O)[C@@H]2CCCN2C1=O (cyclo(FF[NMeW]VLP)) | – | 17
42 | CC[C@H](C)[C@@H]1NC(=O)[C@H](C(C)C)NC(=O)[C@H](CC(C)C)NC(=O)CNC(=O)[C@@H]2CCCN2C(=O)[C@H](Cc2ccc(O)cc2)NC1=O (cyclo(GLVIYP)) | – | 1.1
